Laboratory results reported in patent publication US8481284B2, “Process of preparing conjugates of allium organosulfur compounds with amino acids, peptides, and proteins” (Wisconsin Alumni Research Foundation, priority 2009, dated 2013).
Where two headings read alike, the source gives them in different places.

Tests used:
[1] = system: quinone reductase (QR) activity in Hepa 1c1c7 cells; assay: QR (quinone reductase) induction in Hepa 1c1c7 cells; type: cell-based; conditions: for EC (2-fold QR induction) / QR induction at a single dose: Hepa 1c1c7 cells; for EC (2-fold QR induction): read-out: CD values (dose where there was a doubling of QR); for QR induction in the presence of increasing exogenous GSH: 31 μg/ml conjugate, increasing exogenous GSH in medium; for QR induction at a single dose: 31 μg/ml
Protocol: Specifically, the mixed disulfide conjugates as prepared similar to the pure conjugates of Example 10 or purified from mixtures prepared in Example 11 were used with the Hepa 1c1c7 cell line as disclosed in Prochaska, et al., 1992. Each conjugate was tested over a dose range and increases in quinone reductase (QR) activity was used as a biomarker for phase II enzyme induction, an established mechanism of cancer chemoprotection. […] Results were considered valid as long as cell viability in the assay was >50% as recommended by the established protocol. Typical experimental results are shown for the CySSPe conjugate (FIG. 11), and summary results are provided for all conjugates in terms of relative potency (CD values) for QR induction (Table 8).
(§1) Generally, redox modulation and thiol upregulation is considered a defense mechanism to pathological processes in cells. These mechanisms were analyzed in the mixed disulfide conjugates in both Hepa 1c1c7 and RAW 264.7 macrophage cell lines. Evidence of redox modulation was obtained in terms of 1) attenuation of QR inducing activity with increasing reducing capacity of cells through exogenous GSH addition, 2) increases in cellular glutathione (GSH) and 3) export/enrichment of thiols in the extracellular fluid.

[2] = system: nitric oxide (NO) in lipopolysaccharide-activated macrophages (RAW 264.7); assay: Inhibition of NO evolution in lipopolysaccharide-activated macrophages (RAW 264.7), Griess reagent; type: cell-based, murine; conditions: Mus musculus, RAW264.7; for IC50: LPS 1 μg/ml, 24 hour incubation; for inhibition at 125 µg/mL: at 125 μg/ml, the highest level tested
Protocol: Each conjugate was tested over a dose range and the evolution of NO over the 24 hour incubation period was measured as […] by the Griess reagent using established protocols ([…] et al., 1996). The dose where a 50% inhibition of NO evolution occurred (IC50) relative to the control cells without added conjugate was estimated by sigmoidal curve-fitting as a relative measure of anti-inflammatory activity, with lower IC50 values representing greater potency. […] Typical experimental results are shown for the GSSPe conjugate (FIG. 12), and summary results are provided for all conjugates in terms of relative potency (IC50 values) for NO inhibition (Table 9).

[3] = system: RAW 264.7 cells; assay: Thiol export (extracellular thiols, DTNB) by macrophages; type: cell-based, murine; conditions: compared with other species or control cells
Protocol: FIG. 15 depicts the extracellular thiol concentrations of RAW 264.7 cells treated with CySSR and 5,5′-dithio-bis(2-nitrobenzoic acid) (DTNB) as analyzed in Example 31.
as §1
Specifically, CySSR as prepared in Example 11 was added to macrophages. Thiol export by the macrophages was then analyzed. All CySSR species tested at 31 μg/ml induced thiol export by macrophages by as much as 20-35 times level observed for untreated control cells. Thiols were measured by Ellman's reagent (DTNB). […] Cellular exporting of thiols represents another mechanism by which cells respond to oxidative stress by exporting reducing equivalents to restore extracellular redox homeostasis.

[4] = system: intracellular GSH in Hepa 1c1c7 cells; assay: Intracellular GSH content of Hepa 1c1c7 cells after conjugate addition; type: cell-based; conditions: over the first 10 hours
Protocol: Another related consequence of adding the conjugates to the cells was an increase in cellular GSH. This response is considered to be a general antioxidant defense as well as one that provides specific protection to cancer (Kim et al., 2009) and was assessed in the next Example.
Specifically, GSSP was prepared similar to the GSSR conjugates in Example 11 and added to Hepa 1c1c7 cells. The changes in intracellular GSH content was measured after lysis of the cells at pre-determined intervals after addition of the GSSP conjugate.

[5] = molar equivalent of the μg/ml value

Compound	EC (2-fold QR induction) ([1]; cell viability >50%)	EC (2-fold QR induction) [1, 5]	IC50 ([2]; cell viability ≧80%)	IC50 [2, 5]	QR induction in the presence of increasing exogenous GSH [1]	QR induction at a single dose [1]	thiol efflux / extracellular thiols, in words [3]	inhibition at 125 µg/mL [2]	elevation of intracellular GSH over control [4]
C/C=C/SSC[C@H](NC(=O)CC[C@H](N)C(=O)O)C(=O)NCC(=O)O [GSSPe, S-1-propenyl-L-mercaptoglutathione]	5.3 µg/mL	14 µM	4.6 µg/mL	16 µM					
C=CCSSC[C@@H](N)C(=O)O [CySSA, S-allyl-L-mercaptocysteine]	26 µg/mL	130 µM	9 µg/mL	47 µM	progressively attenuated	nearly a doubling of QR			
C/C=C/SSC[C@@H](N)C(=O)O [CySSPe, S-1-propenyl-L-mercaptocysteine]	4.8 µg/mL	25 µM	21 µg/mL	110 µM			about half as much thiol efflux as the others		
C=CCSSC[C@H](NC(=O)CC[C@H](N)C(=O)O)C(=O)NCC(=O)O [GSSA, S-2-propenyl-L-mercaptoglutathione]	33 µg/mL	87 µM	87 µg/mL	230 µM	progressively attenuated	nearly a doubling of QR			
CSSC[C@H](NC(=O)CC[C@H](N)C(=O)O)C(=O)NCC(=O)O [GSSM, S-methlyl-L-mercaptoglutathione]	87 µg/mL	250 µM						26%	
CSSC[C@@H](N)C(=O)O [CySSM, S-methyl-L-mercaptocysteine]	89 µg/mL	530 µM	48 µg/mL	290 µM					
CCCSSC[C@@H](N)C(=O)O [CySSP, S-propyl-L-mercaptocysteine]	92 µg/mL	470 µM	63 µg/mL	320 µM					
CCCSSC[C@H](NC(=O)CC[C@H](N)C(=O)O)C(=O)NCC(=O)O [GSSP, S-propyl-L-mercaptoglutathione]	73 µg/mL	190 µM						34%	50-70%
CCSSC[C@@H](N)C(=O)O [CySSE, S-ethyl-L-mercaptocysteine]	76 µg/mL	420 µM	102 µg/mL	560 µM					
CCSSC[C@H](NC(=O)CC[C@H](N)C(=O)O)C(=O)NCC(=O)O [GSSE, S-ethyl-L-mercaptoglutathione]	72 µg/mL	200 µM						25%	
